This note sets out measurements from paper PMC9699600, “Characterization of a Family of Scorpion Toxins Modulating Ca^2+-Activated Cl^− Current in Vascular Myocytes” (Toxins, 2022).

Assay [1] concerns the target T1, Ca2+-activated Cl− current (TMEM16A/Ano1) in rat portal vein myocytes (Rattus norvegicus, UniProt A0A8I6GL36).
T1 construct: Isolated myocytes from rat portal veins were obtained by enzymatic dispersion; endogenous in cells; host or cells: freshly dissociated rat portal vein smooth muscle cells (short-term primary culture, used within 24 h)
Nature of the assay: Ca2+-activated Cl− current evoked by caffeine, whole-cell patch clamp. The class given is cell-based. The settings on record: 1 µM external application, 10 mM caffeine, holding potential −50 mV. A general note: The patch-clamp technique gives a direct electrical read-out from membranes.
Experimental: In rat portal vein myocytes, at a holding potential of −50 mV, the external application of 10 mM caffeine induces a transient current depending on an increase in cytoplasmic Ca^2+ concentration, this current was characterized as Cl^− current [9] in the used experimental conditions. The amplitude of the Ca^2+-activated Cl^− current in our setup was 190 ± 20 pA (n = 101).
Isolated myocytes from rat portal veins were obtained by enzymatic dispersion, as described previously (Morel et al. 1996).
Voltage-clamp and membrane current recordings were made with a standard patch-clamp technique using a List EPC-7 patch-clamp amplifier (Darmstadt-Eberstadt, Germany). Patch pipettes had resistances of 3–4 MΩ. When [Ca^2+]i measurements were carried out simultaneously, Indo-1 (50 µM) was added to the pipette solution in the whole-cell recording mode and [Ca^2+]i was estimated from the 405/480 nm fluorescence ratio, using a calibration determined within cells, as previously described [36]. Patch-clamp experiments were carried out at 30 ± 1 °C. […]
The pooled data of n experiments are given as mean ± standard error. […] Inhibition-response curves were analyzed by a nonlinear least-squares fitting program according to models involving one or two binding sites (Graphpad-Prism software).

In assay [2] the test system is Ca2+-activated and voltage-activated K+ currents. Nature of the assay: Ca2+-activated and voltage-activated K+ currents, patch clamp. The class given is cell-based, rat. The settings on record: 100 nM, sequential application.
Experimental: For K^+ current recording, the patch-clamp pipette contained 130 mM KCl and the external solution contained 5.6 mM KCl. Ca^2+-activated and voltage-activated K^+ currents were elicited by depolarizing pulses from −80 to 0 mV and Ca^2+-activated K^+ currents were activated by the opening of Ca^2+ channel during the depolarization step.
Voltage-clamp and membrane current recordings were made with a standard patch-clamp technique using a List EPC-7 patch-clamp amplifier (Darmstadt-Eberstadt, Germany). Patch pipettes had resistances of 3–4 MΩ. […] Patch-clamp experiments were carried out at 30 ± 1 °C.
The normal physiological solution contained (in mM): NaCl 130, KCl 5.6, MgCl2 1, CaCl2 2, glucose 11 and HEPES 10, pH 7.4 with NaOH. The basic pipette solution contained (in mM) CsCl 130, HEPES 10 and pH 7.3 with NaOH (CsCl was replaced by KCl for potassium current measurements). […] Lqh peptides, chlorotoxin and other toxins were added in a bath solution.

T1 sequence (A0A8I6GL36 1-990): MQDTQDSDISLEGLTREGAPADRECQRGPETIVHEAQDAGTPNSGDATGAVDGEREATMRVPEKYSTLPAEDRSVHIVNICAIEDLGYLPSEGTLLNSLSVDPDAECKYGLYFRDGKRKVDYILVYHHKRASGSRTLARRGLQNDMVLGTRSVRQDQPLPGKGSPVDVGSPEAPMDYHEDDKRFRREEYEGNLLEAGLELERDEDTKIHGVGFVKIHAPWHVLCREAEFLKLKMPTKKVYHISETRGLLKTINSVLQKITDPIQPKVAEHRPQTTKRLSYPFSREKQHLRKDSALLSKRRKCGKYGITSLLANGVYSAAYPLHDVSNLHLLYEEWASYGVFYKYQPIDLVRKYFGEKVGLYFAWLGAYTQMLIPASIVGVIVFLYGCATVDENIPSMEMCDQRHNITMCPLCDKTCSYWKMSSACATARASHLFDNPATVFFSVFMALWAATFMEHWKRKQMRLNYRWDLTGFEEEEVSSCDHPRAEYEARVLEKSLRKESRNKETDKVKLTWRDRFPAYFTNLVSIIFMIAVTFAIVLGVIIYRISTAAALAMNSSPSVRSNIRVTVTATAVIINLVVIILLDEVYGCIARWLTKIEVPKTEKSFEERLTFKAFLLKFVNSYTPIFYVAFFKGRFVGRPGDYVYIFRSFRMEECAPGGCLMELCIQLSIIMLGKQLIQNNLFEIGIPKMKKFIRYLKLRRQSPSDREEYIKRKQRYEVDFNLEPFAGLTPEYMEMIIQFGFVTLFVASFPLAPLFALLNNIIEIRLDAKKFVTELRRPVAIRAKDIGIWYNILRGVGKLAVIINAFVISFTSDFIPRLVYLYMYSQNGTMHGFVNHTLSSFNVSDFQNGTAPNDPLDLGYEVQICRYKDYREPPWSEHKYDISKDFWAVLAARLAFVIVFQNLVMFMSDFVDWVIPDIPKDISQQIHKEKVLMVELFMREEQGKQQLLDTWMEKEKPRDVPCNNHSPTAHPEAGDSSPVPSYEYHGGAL

Regarding chlorotoxin, the “inhibition of the Ca2+-activated Cl− current at 1 µM” value in assay [1] is given as 36 ± 9%.

On to charybdotoxin, for which, in assay [2], the “effect on K+ currents (confirmation of both types of K+ currents)” value is reported as “inhibition”.

Take “scyllatoxin (AFCNLRMCQLSCRSLGLLGKCIGDKCECVKH; UniProt P16341 1-31, looked up) [K+ channel toxin from Latoxan]”: the “effect on K+ currents (confirmation of both types of K+ currents)” value in assay [2] is “inhibition”.
